Measured values published in patent publication US9018208B2, “Heterocycles as potassium channel modulators” (Icagen Inc., priority 2007, dated 2015).
Like-named read-outs stand apart in the source and are kept apart here.

How the values were obtained:
[1] = test system: electroshock seizure, Male Wistar rats; assay: In vivo rat assay for anti-convulsant activity (rat MES, electroshock seizure); details: for ED50: Rattus norvegicus, po, rat MES dose-response; for Rat MES activity: single dose screening, oral, typically 10 mg/kg, animals protected from hind limb extension
Protocol: Male Wistar rats were housed 4 per cage on a regular light/dark cycle (lights on 0600-1800) for one week prior to anti-convulsant testing. The apparatus used to induce electroshock seizure was obtained from Walhquist Instrument Co., Salt Lake City, Utah. The shock level was set at 150 mA and the duration at 0.2 seconds. A drop of 1% proparacaine solution was placed in each eye of a rat, the electrodes were placed over the eyes, and the shock was administered. Latency to hind limb extension was measured to the nearest 0.1 second.
The KCNQ opener was homogenized in either 0.5% carboxymethylcellulose in water or 0.5% methylcellulose in water) and administered orally through a steel 18-gauge rat gavage tube in a volume of 2 mL/kg of body weight. In the single dose screening assay, latency to seizure for the vehicle group and the KCNQ opener group were compared using t-test. Typically a dose of 10 mg/kg of the opener is used. However, openers can be run n a dose-response experiment where doses of 1, 3, 10 and 30 mg/Kg are used.
In the single dose screening assay, latency to seizure for the vehicle and the 10 mg/kg groups were compared using t-test. Latencies to seizure in the dose response studies were submitted to analysis of variance and all dose groups were compared to vehicle using Dunnett's method (JMP© ver 5.1, SAS). In all cases an effect was considered significant if p≦0.05.

[2] = test system: SH-SY5Y M-currents (KCNQ2, KCNQ3 and KCNQ5); assay: SH-SY5Y native cell line FLIPR assay (voltage-sensitive dye DiBAC); assay type: cell-based, mouse neuroblastoma, rat glioma hybrid cell line; details: SH-SY5Y native cell line, read-out: SH-SY5Y EC50
In short: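 Response is peak DiBAC fluorescence change, normalised to the maximum from a positive control agent, sampled every 30 s over 25 min. Before compound addition, SH-SY5Y cells differentiated with PGE1 plus isomethylbutylxanthine were dye-loaded for 1 h in EBSS with […] DiBAC.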

EC50 ([2]; FLIPR assay (Table 3)) [nM]	EC50 ([2]; FLIPR assay, Table 2) [nM]	EC50 ([2]; FLIPR assay, Table 1) [nM]	EC50 ([2]; FLIPR assay (Table 6)) [nM]	Compound	ED50 [1] [mg/kg]	Rat MES activity [1]
500 to 3000				CC(C)(C)CC(=O)Nc1nc2ccc(F)cn2c1-c1nccs1 [Compound 371, N-(6-fluoro-3-(thiazol-2-yl)imidazo[1,2-a]pyridin-2-yl)-3,3-dimethyl butanamide]	3.6	++ (++ 4-6 animals protected)
	< 500			Cc1ccc2nc(NC(=O)CC(C)C(F)(F)F)c(-c3cccc(C(F)(F)F)c3)n2n1 (centres unmarked) [Compound 316, 4,4,4-trifluoro-3-methyl-N-(6-methyl-3-(3-(trifluoromethyl)phenyl)imidazo[1,2-b]pyridazin-2-yl)butanamide]		++ (++ 4-6 animals protected)
		< 500		O=C(Cc1ccccc1)Nc1nc2ccc(C(F)(F)F)cn2c1C1CCCCC1 [Compound 38, N-(3-cyclohexyl-6-(trifluoromethyl)imidazo[1,2-a]pyridin-2-yl)-2-phenylacetamide]		++ (++ 4-6 animals protected)
		< 500		CC(C)(C)Cc1c(NC(=O)C2CCCC2)nc2ccc(C(F)(F)F)cn12 [Compound 51, N-(3-neopentyl-6-(trifluoromethyl)imidazo[1,2-a]pyridin-2-yl)cyclopentanecarboxamide]		++ (++ 4-6 animals protected)
	< 500			CC1(CC(=O)Nc2nc3ccc(F)cn3c2-c2ccc(C(F)(F)F)cc2)CCCC1 [Compound 180, N-(6-fluoro-3-(4-(trifluoromethyl)phenyl)imidazo[1,2-a]pyridin-2-yl)-2-(1-methylcyclopentyl)acetamide]		++ (++ 4-6 animals protected)
< 500				CC(C)(C)CC(=O)Nc1nc2ccc(F)cn2c1-c1nc2ccccc2s1 [Compound 360, N-(3-(benzo[d]thiazol-2-yl)-6-fluoroimidazo[1,2-a]pyridin-2-yl)-3,3-dimethylbutanamide]		+ (+ 2-3 animals protected)
	< 500			CC(C)(C)CC(=O)Nc1nc2ccc(F)cn2c1-c1cc(F)cc(C(F)(F)F)c1 [Compound 198, N-(6-fluoro-3-(3-fluoro-5-(trifluoromethyl)phenyl)imidazo[1,2-a]pyridin-2-yl)-3,3-dimethylbutanamide]		+++ (+++ 7-8 animals protected)
			< 500	CC(C)(C(=O)Nc1nc2ccc(C(F)(F)F)cn2c1C1CCC1)C(F)(F)F [Compound 428, N-(3-cyclobutyl-6-(trifluoromethyl)imidazo[1,2-a]pyridin-2-yl)-3,3,3-trifluoro-2,2-dimethylpropanamide]	1.1	+++ (+++ 7-8 animals protected)
	< 500			CC(C)(C)CC(=O)Nc1nc2ccc(F)cn2c1-c1ccc(C(F)(F)F)cc1 [Compound 128, N-(6-fluoro-3-(4-(trifluoromethyl)phenyl)imidazo[1,2-a]pyridin-2-yl)-3,3-dimethylbutanamide]		+++ (+++ 7-8 animals protected)
< 500				CC(C)(C)CC(=O)Nc1nc2ccc(F)cn2c1-c1ccc(C(F)(F)F)cn1 [Compound 353, N-(6-fluoro-3-(5-(trifluoromethyl)pyridin-2-yl)imidazo[1,2-a]pyridin-2-yl)-3,3-dimethylbutanamide]		+++ (+++ 7-8 animals protected)
< 500				CC(C)(C)CC(=O)Nc1nc2ccc(F)cn2c1-c1ccc(Cl)cn1 [Compound 363, N-(3-(5-chloropyridin-2-yl)-6-fluoroimidazo[1,2-a]pyridin-2-yl)-3,3-dimethylbutanamide]		++ (++ 4-6 animals protected)
			< 500	N-(3-cyclobutyl-6-(trifluoromethyl)imidazo[1,2-b]pyridazin-2-yl)-4,4,4-trifluoro-3,3-dimethylbutanamide [Compound 438]		+++ (+++ 7-8 animals protected)
	< 500			Cc1ccc2nc(NC(=O)CC(C)(C)C)c(-c3cccc(C(F)(F)F)c3)n2n1 [Compound 308, 3,3-dimethyl-N-(6-methyl-3-(3-(trifluoromethyl)phenyl)imidazo[1,2-b]pyridazin-2-yl)butan amide]	1.6	+++ (+++ 7-8 animals protected)
